Experimental data taken from US20220218781A1, “COMPOSITION FOR ENHANCEMENT OF BIOAVAILABILITY OF PHYTOCHEMICALS AND PROCESS FOR PREPARATION THEREOF” (OLENE LIFE SCIENCES PRIVATE LIMITED, priority 2019, published 2022).

Assay: Comparative self-dispersion study in water
Type: physicochemical
Details: without mechanical stirring, test product vs. standard unformulated reference product
Procedure: A comparative self-dispersion study was carried out between the ‘Composition of Example 1 (Test product)’ and ‘Standard unformulated lutein extract (Reference product)’.
A comparative self-dispersion study was carried out between the ‘Composition of Example 13 (Test product)’ and ‘Standard unformulated Boswellia extract (Reference product)’.
A comparative self-dispersion study was carried out between the ‘Composition of Example 16 (Test product)’ and ‘Standard unformulated Pepper extract (Reference product)’.
A comparative self dispersion study was carried out between the ‘Composition of Example 22 (Test product)’ and ‘Standard unformulated Coenzyme Q10 Extract (Reference product)’.
A comparative self dispersion study was carried out between the ‘Composition of Example 25 (Test product)’ and ‘Standard unformulated Palmitoylethanolamide (Reference product)’. The dispersion profile is given in FIG. 7A (test product) and FIG. 7B (reference product).

self-dispersion profile: non-dispersible
SMILES: COC1=C(OC)C(=O)C(C/C=C(\C)CC/C=C(\C)CC/C=C(\C)CC/C=C(\C)CC/C=C(\C)CC/C=C(\C)CC/C=C(\C)CC/C=C(\C)CC/C=C(\C)CCC=C(C)C)=C(C)C1=O [Coenzyme Q10]
